Results taken from paper PMC4552634, “A New Set of Chemical Starting Points with Plasmodium falciparum Transmission-Blocking Potential for Antimalarial Drug Discovery” (PLoS ONE, 2015).

Test system: P. falciparum stage V gametocytes
Experiment: Gametocytocidal ATP bioluminescence assay (single point 5 μM and 1 μM, dose-response)
Format: cell-based, Plasmodium falciparum
Settings: P. falciparum gametocytes, 5 μM single concentration, 48 h, decrease of ATP level (S1 Table)
Method: Purified stage IV-V gametocytes were obtained as previously described [10]. Single point ATP bioluminescence assay and dose–response of positive hits was determined in accordance with the previously published protocol [10].

Row | Compound | % Inhibition [%]
1 | Clc1ccc2c(NCCc3ccccn3)ccnc2c1 [TCMDC-123461] | 8
2 | COC(=O)CCCCOc1cc(Cc2cnc(N)nc2N)cc(OC)c1OC [TCMDC-138041] | 2
3 | Ic1cc(Nc2ncnc3ccsc23)ccc1OCc1ccccc1 [TCMDC-131945] | 8
4 | Cc1cccc2nc(-c3cccc(-c4ccc(NC(=O)Cc5ccc[n+]([O-])c5)cc4)c3)[nH]c12 [TCMDC-136993] | -16
5 | CCc1ccc(NC(=O)c2cccc(CN3CCCN(CC4CCCCC4)CC3)c2)cc1 [TCMDC-135988] | -39
6 | CC1CCN(C(=O)C(Cc2c[nH]c3ccccc23)NS(=O)(=O)c2ccc(Cl)cc2)CC1 (stereo not shown) [TCMDC-124494] | 54
7 | CC(C)(C)c1ccc(NC(=O)c2cccc(CN3CCCN(Cc4ccc(F)cc4)CC3)c2)cc1 [TCMDC-135985] | -30
8 | OC(CN1CCN(c2cccc(Cl)c2)CC1)C(c1ccccc1)c1ccccc1 (stereo not shown) [TCMDC-123456] | 0.238
9 | O=C(NCCCN1CCN(c2cccc(Cl)c2)CC1)c1ccc(-c2nc3cc(Cl)c(Cl)cc3[nH]2)cc1 [TCMDC-140077] | 1.64
10 | CO/C(=C\C=C\c1cc2cc(Cl)c(Cl)cc2[nH]1)C(=O)NC1CC2CCCC(C1)N2C (stereo not shown) [TCMDC-139067] | 19
11 | CCCCCCNC(=O)C1Cc2c([nH]c3ccccc23)C2(CCN(CCc3ccccc3)CC2)N1 (stereo not shown) [TCMDC-141085] | -58
12 | COc1ccc(CN2CCCN(Cc3cccc(C(=O)Nc4ccc(C(C)(C)C)cc4)c3)CC2)cc1 [TCMDC-135986] | 5.59
13 | CN(c1cc(NC(=O)c2cccs2)ccn1)C1CCN(Cc2cccc(C#N)c2)CC1 [TCMDC-134970] | 40
14 | Clc1ccc(-c2nc3ccc(-c4ccc5nc(-c6ccc(Cl)cc6)[nH]c5c4)cc3[nH]2)cc1 [TCMDC-123460] | 1.65
15 | Nc1nc(N)c2c(ccc3ccccc32)n1 [TCMDC-131942] | 19
16 | O=C(Nc1ccc(OC2CCN(Cc3ccccc3)CC2)c(Cl)c1)c1ccco1 [TCMDC-133966] | 63
17 | O=C(/C=C/c1ccc(Cl)c(Cl)c1)N1CCC(CCN2CCC(c3c[nH]c4ccncc34)CC2)CC1 [TCMDC-140075] | 91
18 | Nc1ccnc2ccc(NC(=O)CCCCCc3ccccc3)cc12 [TCMDC-139070] | 2
19 | Cc1cc(NC(=O)c2ccco2)ccc1OC1CCN(Cc2ccccc2)CC1 [TCMDC-133965] | 12
20 | Cc1cc(NC(=O)Nc2ccc3nc(C)oc3c2)c2cc(Cl)ccc2n1 [TCMDC-140076] | 38

Row | Compound | % Inhibition [%]
21 | Cc1nc(C)c(CC(=O)Nc2cccc(-c3cccc(-c4nc5ccc(C(F)(F)F)cc5[nH]4)c3)c2)s1 [TCMDC-136995] | 4.51
22 | COc1ccc2[nH]cc(C3CCN(Cc4ccc(NC(=O)c5ccc(-c6ccccc6)cc5)cc4)CC3)c2c1 [TCMDC-139069] | 8
23 | CCOc1ccc(NC(=O)c2cccc(CN3CCCN(Cc4cccc(O)c4)CC3)c2)cc1 [TCMDC-135987] | -5
24 | C1=C(c2c[nH]c3ccccc23)CCN(Cc2ccccc2)C1 [TCMDC-123457] | -71
25 | C=CCc1cc(Cc2cnc(N)nc2N)cc(CCC)c1OC [TCMDC-138039] | 23
26 | CNC(=O)c1cc(NCCCNCc2ccc(Cl)c(C(F)(F)F)c2)nc2ccccc12 [TCMDC-141082] | 73
27 | COc1cc(Cc2cnc(N)nc2N)c2c(c1OC)OC(C)(C)C=C2 [TCMDC-138038] | -2.79
28 | Cc1ccc(Oc2ncccc2C(=O)Nc2cccc3cccnc23)c(C)c1 [TCMDC-125499] | -13
29 | COc1ccc2nccc([C@@H](O)CN3CCC(NCc4nc5c(OCc6ccccc6)cccc5[nH]4)CC3)c2c1 [TCMDC-141083] | 34
30 | CN(Cc1cccc(C#N)c1)C1CCN(c2cc(NC(=O)c3cccc(F)c3)ccn2)CC1 [TCMDC-134972] | 21
31 | O=C1C(c2ccccc2)=C(Nc2cccc(OC(F)(F)C(F)F)c2)c2ccccc21 [TCMDC-125498] | 66
32 | COc1ccc(Cl)cc1NC(=O)Nc1cc(C)nc2ccccc12 [TCMDC-125497] | -50
33 | Cc1cccc(CN2CCCN(Cc3cccc(C(=O)Nc4ccc(C(C)(C)C)cc4)c3)CC2)c1 [TCMDC-135984] | -91
34 | N#Cc1c(N2CCN(c3ccc(F)cc3)CC2)nc(N)c2c(N)nc3c(c12)CC(=O)N3C1CC1 [TCMDC-124490] | 44
35 | CN(CC(=O)Nc1ccc(F)c(F)c1F)c1ncnc2sc(-c3ccccc3)cc12 [TCMDC-124491] | 23
36 | C=CCOc1cc(Cc2cnc(N)nc2N)cc(OC)c1OC [TCMDC-138042] | -4
37 | Cc1ccnc2nc(C(=O)Nc3cc(C(F)(F)F)ccc3N3CCCCC3)nn12 [TCMDC-124492] | -24
38 | Nc1nc(N)c2c(Sc3ccccc3)cccc2n1 [TCMDC-131943] | 9
39 | COc1ccc(NC2=C(c3ccccc3)C(=O)c3ccccc32)cn1 [TCMDC-125501] | 37
40 | CC(C)NC(C)(C)CN(Cc1ccc(-c2ccc(C(F)(F)F)cc2)cc1)C(=O)Cn1c(CCc2cccc(F)c2F)nc(=O)c2ccccc21 [TCMDC-141084] | 72

Row | Compound | % Inhibition [%]
41 | CC(=O)c1c(C)[nH]c(C(=O)Nc2ccc(-c3nc4ccc(C)cc4s3)cc2)c1C [TCMDC-124493] | 55
42 | Cc1cc(NC(=O)c2cccs2)ccc1OC1CCN(Cc2ccccc2)C1 (stereo not shown) [TCMDC-133968] | -2.76
43 | COc1cc2nc(C)nc(Nc3ccc(Cc4ccccc4)cc3)c2cc1OC [TCMDC-131941] | 1.46
44 | CC(CN1CCN(CC(c2ccc(F)cc2)N2CCN(C)CC2)CC1)C(=O)c1ccc(O)cc1.O=C(O)/C=C\C(=O)O (stereo not shown) [TCMDC-125496] | 30
45 | CNc1c2c(nc3ccc(NC(=O)CCCCCCc4ccccc4)cc13)CCCC2 [TCMDC-139066] | 79
46 | N=C(N)c1ccc(-c2cc3ccc(C(=N)N)cc3[nH]2)cc1 [TCMDC-123458] | 53
47 | O=C(Nc1ccc(OC2CCN(Cc3ccccc3)CC2)c(Cl)c1)c1ccc(F)cc1 [TCMDC-133967] | 19
48 | COc1cc(C(=O)NC2CCN(Cc3ccccc3)CC2)ccc1-c1nc2cc(Cl)c(Cl)cc2[nH]1 [TCMDC-140078] | -56
49 | Cc1nc(C)c(CC(=O)Nc2ccc(-c3cccc(-c4nc5ccc(C(F)(F)F)cc5[nH]4)c3)cc2)s1 [TCMDC-136996] | -50
50 | CN(Cc1cccc(C#N)c1)C1CCN(c2cc(NC(=O)c3ccc(F)cc3)ccn2)CC1 [TCMDC-134974] | -6
51 | Cc1cccc(C(=O)Nc2ccnc(N3CCC(N(C)Cc4cccc(C#N)c4)CC3)c2)c1 [TCMDC-134973] | -4.57
52 | COc1cc(C(=O)NCCCN2CCN(c3cc(Cl)ccc3OC)CC2)ccc1-c1nc2cc(Cl)c(Cl)cc2[nH]1 [TCMDC-140079] | 4.42
53 | COc1cc(Cc2cnc(N)nc2N)cc(OCCCC#N)c1OC [TCMDC-138040] | -4.21
54 | O=C(Nc1ccc(CN2CCC(c3c[nH]c4ccc(O)cc34)CC2)cc1)c1ccc(-c2ccccc2)cc1 [TCMDC-139068] | -139
55 | COc1cc2ncnc(Nc3ccc(OCc4ccccc4)c(I)c3)c2cc1OC [TCMDC-131944] | -25
56 | COc1ccc2nccc([C@@H](O)CN3CCC(NCc4ccc5scnc5c4)CC3)c2c1 [TCMDC-141081] | 10
57 | Cc1cccc2nc(-c3cccc(-c4cccc(NC(=O)Cc5ccc[n+]([O-])c5)c4)c3)[nH]c12 [TCMDC-136992] | 25
58 | Cc1cccc(CN2CCC(Oc3ccc(NC(=O)c4cccs4)cc3Cl)CC2)n1 [TCMDC-133964] | 24
59 | CC(=O)Nc1ccc(CN2CCC(N(C)c3cc(NC(=O)c4cccs4)ccn3)CC2)cc1 [TCMDC-134971] | -7

Same assay, conditions: P. falciparum gametocytes; average; read-out: IC50 Pf Gametocytes average, IC50 (µM) average

Row | Compound | IC50 [µM]
60 | CCN(CC)/C(=N/C(=N)NCc1ccc(Cl)cc1Cl)NCCCCCCN/C(=N\C(=N)NCc1ccc(Cl)cc1Cl)N(CC)CC [TCMDC-131819] | 0.3

Same assay, conditions: Plasmodium falciparum; P. falciparum gametocytes, 5 μM single concentration, 48 h, decrease of ATP level (S1 Table)

Row | Compound | inhibition at 5 µM [%]
61 | COC(=O)c1cccc(CNCc2cccc(-c3cccc(-c4nc5ccccc5[nH]4)c3)c2)c1 [TCMDC-132961] | 33
62 | COC(=O)c1cccc(CNCc2cccc(-c3cccc(-c4nc5cc(F)ccc5[nH]4)c3)c2)c1 [TCMDC-132960] | 6
63 | FC(F)(F)c1ccc2[nH]c(-c3cccc(-c4ccc(CNCc5cnn(-c6ccccc6)n5)cc4)c3)nc2c1 [TCMDC-132964] | 25
64 | Cc1nc(C)c(CC(=O)Nc2ccc(-c3ccc(-c4nc5cc(C(F)(F)F)ccc5[nH]4)s3)cc2)s1 [TCMDC-136994] | 7
65 | Cc1cccc2nc(-c3cccc(-c4cccc(CNCc5cnn(-c6ccccc6)n5)c4)c3)[nH]c12 [TCMDC-132963] | 8
66 | c1ccc(-n2ncc(CNCc3ccc(-c4ccc(-c5nc6ccccc6[nH]5)s4)cc3)n2)cc1 [TCMDC-132962] | 1

Same assay, conditions: Plasmodium falciparum; gametocytes, primary screen at 5 μM (S9 Table, CSA analogs)

Row | Compound | inhibition at 5 µM [%]
67 | CN(C)CCNCc1ccc(-c2ccc(-c3nc4ccccc4[nH]3)s2)cc1 [TCMDC-132683] | 58.1
68 | c1ccc2[nH]c(-c3ccc(-c4ccc(CNC5CC5)cc4)s3)nc2c1 [TCMDC-132675] | -17.6
69 | CNCCNCc1ccc(-c2ccc(-c3nc4ccccc4[nH]3)s2)cc1 [TCMDC-132824] | 82.1
70 | CC(C)CN(C)Cc1ccc(-c2ccc(-c3nc4ccccc4[nH]3)s2)cc1 [TCMDC-136786] | -17.4

Same assay, conditions: gametocytes, primary screen at 5 μM (S10 Table, MCSI analogs)

Row | Compound | %_Inh [%]
71 | Cc1cccc2nc(-c3ccc(-c4cccc(CNCc5ccc(CN)cc5)c4)s3)[nH]c12.O=C(O)C(F)(F)F [TCMDC-132812] | 115.306
72 | Cc1cccc2nc(-c3ccc(-c4ccc(CN5CCN(C6CCN(C)CC6)CC5)cc4)s3)[nH]c12 [TCMDC-133866] | 106.989

Test system: P. falciparum asexual stages
Experiment: not given
Settings: asexual stages; TCAMS data; read-out: IC50 asexual; cited from earlier work

Row | Compound | IC50 [nM]
73 | CCN(CC)/C(=N/C(=N)NCc1ccc(Cl)cc1Cl)NCCCCCCN/C(=N\C(=N)NCc1ccc(Cl)cc1Cl)N(CC)CC [TCMDC-131819] | 218
